Laboratory results: US20170190671A1, “BIS(ARYL)CATECHOL DERIVATIVES AS HERBICIDES” (E I DU PONT DE NEMOURS AND COMPANY, priority 2014, published 2017)

Key:
Test in all cases: Test C preemergence
Format in all cases: in vivo
[1] = test system: yellow nutsedge (Cyperus esculentus); conditions: Cyperus, pre-emergence, 336 h, scale 0 to 100, read-out: Plant response rating, Nutsedge, Yellow
Summary of the method: (§1)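 Visual ratings (0 none to 100 complete control) were made 13 to 15 days after treatment, relative to controls. Test chemicals, formulated in a non-phytotoxic solvent mixture with surfactant, were applied in the greenhouse preemergence to seeded loam-sand soil or postemergence to plants 2 to 18 cm tall.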

[2] = test system: large (Lg) crabgrass (Digitaria sanguinalis); conditions: Digitaria sanguinalis, pre-emergence, 336 h, scale 0 to 100, read-out: Plant response rating, Crabgrass, Large
Summary of the method: as §1

[3] = test system: blackgrass (Alopecurus myosuroides); conditions: Alopecurus myosuroides, pre-emergence, 336 h, scale 0 to 100, read-out: Plant response rating, Blackgrass
Summary of the method: as §1

[4] = test system: corn (Zea mays); conditions: Zea mays, pre-emergence, 336 h, scale 0 to 100
Summary of the method: as §1

[5] = test system: johnsongrass (Sorghum halepense); conditions: Sorghum halepense, pre-emergence, 336 h, scale 0 to 100, read-out: Plant response rating, Johnsongrass
Summary of the method: as §1

[6] = test system: pigweed (Amaranthus retroflexus); conditions: Amaranthus retroflexus, pre-emergence, 336 h, scale 0 to 100, read-out: Plant response rating, Pigweed
Summary of the method: as §1

[7] = test system: barnyardgrass (Echinochloa crus-galli); conditions: Echinochloa crus-galli, pre-emergence, read-out: Plant response rating, Barnyardgrass
Summary of the method: as §1

[8] = test system: ragweed (common ragweed, Ambrosia elatior); conditions: Ambrosia artemisiifolia, pre-emergence, 336 h, scale 0 to 100, read-out: Plant response rating, Ragweed
Summary of the method: as §1

[9] = test system: lambsquarters (Chenopodium album); conditions: Chenopodium album, pre-emergence, 336 h, scale 0 to 100, read-out: Plant response rating, Lambsquarters
Summary of the method: as §1

[10] = test system: soybean (Glycine max); conditions: Glycine max, pre-emergence, scale 0 to 100, read-out: Plant response rating, Soybean
Summary of the method: as §1

[11] = test system: giant foxtail (Setaria faberii); conditions: Setaria faberi, pre-emergence, 336 h, scale 0 to 100, read-out: Plant response rating, Foxtail, Giant
Summary of the method: as §1

[12] = test system: Italian ryegrass (Lolium multiflorum); conditions: Lolium multiflorum, pre-emergence, 336 h, scale 0 to 100, read-out: Plant response rating, Ryegrass, Italian
Summary of the method: as §1

[13] = test system: velvetleaf (Abutilon theophrasti); conditions: Abutilon theophrasti, pre-emergence, scale 0 to 100, read-out: Plant response rating, Velvetleaf
Summary of the method: as §1

[14] = test system: winter wheat (Triticum aestivum); conditions: Triticum aestivum, pre-emergence, 336 h, scale 0 to 100, read-out: Plant response rating, Wheat
Summary of the method: as §1

**Q.** `N#Cc1cccc(Oc2ncc(Cl)cn2)c1Oc1ncc(Br)cn1` [Compound 4, 2-[(5-bromo-2-pyrimidinyl)oxy]-3-[(5-chloro-2-pyrimidinyl)oxy]benzonitrile] was tested. Which pest or weed control at 31 g/ha ([1]; 31 g ai/ha, preemergence) did it give?
**A.** 0%

**Q.** And the pest or weed control at 62 g/ha ([1]; 62 g ai/ha, preemergence)?
**A.** 30%

**Q.** What about the pest or weed control at 125 g/ha ([1]; 125 g ai/ha, preemergence) of the same molecule?
**A.** 55%

**Q.** And the pest or weed control at 16 g/ha ([1]; Preemergence, 16 g ai/ha)?
**A.** 0%

**Q.** And the pest or weed control at 31 g/ha ([2]; 31 g ai/ha, preemergence)?
**A.** 100%

**Q.** What about the pest or weed control at 62 g/ha ([2]; 62 g ai/ha, preemergence) of the same molecule?
**A.** 100%

**Q.** And the pest or weed control at 125 g/ha ([2]; 125 g ai/ha, preemergence)?
**A.** 100%

**Q.** What about the pest or weed control at 16 g/ha ([2]; Preemergence, 16 g ai/ha) of the same molecule?
**A.** 75%

**Q.** What about the pest or weed control at 31 g/ha ([3]; 31 g ai/ha, preemergence) of the same molecule?
**A.** 30%

**Q.** What about the pest or weed control at 62 g/ha ([3]; 62 g ai/ha, preemergence) of the same molecule?
**A.** 95%

**Q.** And the pest or weed control at 125 g/ha ([3]; 125 g ai/ha, preemergence)?
**A.** 95%

**Q.** And the pest or weed control at 16 g/ha ([3]; Preemergence, 16 g ai/ha)?
**A.** 0%

**Q.** What about the Corn plant response rating (crop injury, 0 = no effect, 100 = complete kill) at 31 g/ha ([4]; 31 g ai/ha, preemergence) of the same molecule?
**A.** 5%

**Q.** And the Corn plant response rating (crop injury, 0 = no effect, 100 = complete kill) at 62 g/ha ([4]; 62 g ai/ha, preemergence)?
**A.** 10%

**Q.** And the Corn plant response rating (crop injury, 0 = no effect, 100 = complete kill) at 125 g/ha ([4]; 125 g ai/ha, preemergence)?
**A.** 35%

**Q.** What about the Corn plant response rating (crop injury, 0 = no effect, 100 = complete kill) at 16 g/ha ([4]; Preemergence, 16 g ai/ha) of the same molecule?
**A.** 0%

**Q.** What about the pest or weed control at 31 g/ha ([5]; 31 g ai/ha, preemergence) of the same molecule?
**A.** 15%

**Q.** And the pest or weed control at 62 g/ha ([5]; 62 g ai/ha, preemergence)?
**A.** 80%

**Q.** What about the pest or weed control at 125 g/ha ([5]; 125 g ai/ha, preemergence) of the same molecule?
**A.** 98%

**Q.** What about the pest or weed control at 16 g/ha ([5]; Preemergence, 16 g ai/ha) of the same molecule?
**A.** 0%

**Q.** What about the pest or weed control at 31 g/ha ([6]; 31 g ai/ha, preemergence) of the same molecule?
**A.** 100%

**Q.** And the pest or weed control at 62 g/ha ([6]; 62 g ai/ha, preemergence)?
**A.** 70%

**Q.** What about the pest or weed control at 125 g/ha ([6]; 125 g ai/ha, preemergence) of the same molecule?
**A.** 100%

**Q.** And the pest or weed control at 16 g/ha ([6]; Preemergence, 16 g ai/ha)?
**A.** 5%

**Q.** What about the pest or weed control at 31 g/ha ([7]; 31 g ai/ha, preemergence, scale 0 to 100) of the same molecule?
**A.** 60%

**Q.** What about the pest or weed control at 62 g/ha ([7]; 62 g ai/ha, preemergence, scale 0 to 100) of the same molecule?
**A.** 85%

**Q.** What about the pest or weed control at 125 g/ha ([7]; 125 g ai/ha, preemergence, scale 0 to 100) of the same molecule?
**A.** 100%

**Q.** And the pest or weed control at 16 g/ha ([7]; Preemergence, 16 g ai/ha, scale 0 to 100 (0 no effect, 100 complete control))?
**A.** 20%

**Q.** What about the pest or weed control at 31 g/ha ([8]; 31 g ai/ha, preemergence) of the same molecule?
**A.** 10%

**Q.** And the pest or weed control at 62 g/ha ([8]; 62 g ai/ha, preemergence)?
**A.** 5%

**Q.** What about the pest or weed control at 125 g/ha ([8]; 125 g ai/ha, preemergence) of the same molecule?
**A.** 70%

**Q.** What about the pest or weed control at 16 g/ha ([8]; Preemergence, 16 g ai/ha) of the same molecule?
**A.** 0%

**Q.** And the pest or weed control at 31 g/ha ([9]; 31 g ai/ha, preemergence)?
**A.** 95%

**Q.** What about the pest or weed control at 62 g/ha ([9]; 62 g ai/ha, preemergence) of the same molecule?
**A.** 85%

**Q.** And the pest or weed control at 125 g/ha ([9]; 125 g ai/ha, preemergence)?
**A.** 100%

**Q.** And the pest or weed control at 16 g/ha ([9]; Preemergence, 16 g ai/ha)?
**A.** 75%

**Q.** And the plant injury at 31 g/ha ([10]; 31 g ai/ha, preemergence)?
**A.** 30%

**Q.** And the plant injury at 62 g/ha ([10]; 62 g ai/ha, preemergence)?
**A.** 50%

**Q.** What about the plant injury at 125 g/ha ([10]; 125 g ai/ha, preemergence) of the same molecule?
**A.** 95%

**Q.** What about the plant injury at 16 g/ha ([10]; Preemergence, 16 g ai/ha) of the same molecule?
**A.** 5%

**Q.** What about the pest or weed control at 31 g/ha ([11]; 31 g ai/ha, preemergence) of the same molecule?
**A.** 98%

**Q.** What about the pest or weed control at 62 g/ha ([11]; 62 g ai/ha, preemergence) of the same molecule?
**A.** 100%

**Q.** And the pest or weed control at 125 g/ha ([11]; 125 g ai/ha, preemergence)?
**A.** 100%

**Q.** What about the pest or weed control at 16 g/ha ([11]; Preemergence, 16 g ai/ha) of the same molecule?
**A.** 10%

**Q.** What about the pest or weed control at 31 g/ha ([12]; 31 g ai/ha, preemergence) of the same molecule?
**A.** 5%

**Q.** And the pest or weed control at 62 g/ha ([12]; 62 g ai/ha, preemergence)?
**A.** 45%

**Q.** What about the pest or weed control at 125 g/ha ([12]; 125 g ai/ha, preemergence) of the same molecule?
**A.** 70%

**Q.** And the pest or weed control at 16 g/ha ([12]; Preemergence, 16 g ai/ha)?
**A.** 0%

**Q.** And the pest or weed control at 31 g/ha ([13]; 31 g ai/ha, preemergence)?
**A.** 45%

**Q.** And the pest or weed control at 62 g/ha ([13]; 62 g ai/ha, preemergence)?
**A.** 55%

**Q.** And the pest or weed control at 125 g/ha ([13]; 125 g ai/ha, preemergence)?
**A.** 100%

**Q.** What about the pest or weed control at 16 g/ha ([13]; Preemergence, 16 g ai/ha) of the same molecule?
**A.** 5%

**Q.** What about the plant injury at 31 g/ha ([14]; 31 g ai/ha, preemergence) of the same molecule?
**A.** 0%

**Q.** And the plant injury at 62 g/ha ([14]; 62 g ai/ha, preemergence)?
**A.** 0%

**Q.** And the plant injury at 125 g/ha ([14]; 125 g ai/ha, preemergence)?
**A.** 5%

**Q.** And the plant injury at 16 g/ha ([14]; Preemergence, 16 g ai/ha)?
**A.** 0%
